The results in this text go back to PubChem BioAssay AID256 (DTP/NCI, 2004).

The subject of this assay is CD2F1 mice, L1210 leukemia ip, survival T/C. The assay is described as follows: NCI In Vivo Anticancer Drug Screen. Data for tumor model L1210 Leukemia (intraperitoneal) in CD2F1 (CDF1) mice. The note with it: higher = longer survival. The gist of the method: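 Tumor-bearing mice (transplanted tumor) were split into treated and vehicle control groups, and the measured endpoint of each treated group was divided by that of its vehicle controls.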

Inconclusive results and toxic doses are left out.

As for `CNC(=O)c1cccc2c(Nc3ccc(NS(C)(=O)=O)cc3OC)c3cccc(C)c3nc12`, the T/C is 181 % of control (endpoint: median survival time, dose: 3.0 mg/kg/injection, schedule: Q01DX009 (ip), vehicle: water); 195 % of control (endpoint: median survival time, dose: 6.25 mg/kg/injection, schedule: Q01DX009 (ip), vehicle: water); 98 % of control (endpoint: median survival time, dose: 12.0 mg/kg/injection, schedule: Q01DX009 (ip), vehicle: water); 160 % of control (endpoint: median survival time, dose: 12.5 mg/kg/injection, schedule: Q01DX005 (oral), vehicle: water); 102 % of control (endpoint: median survival time, dose: 12.5 mg/kg/injection, schedule: Q01DX009 (ip), vehicle: water); 102 % of control (endpoint: median survival time, dose: 25.0 mg/kg/injection, schedule: Q01DX005 (oral), vehicle: water). Further, where the note is “endpoint: median survival time, dose: 25.0 mg/kg/injection, schedule: Q01DX009 (ip), vehicle: water”, the T/C is 87 % of control.

In the case of `CCCCCCCCCCCCS(=O)(=O)O`, the T/C (endpoint: mean survival time, dose: 100.0 mg/kg/injection, schedule: Q04DX003 (ip), vehicle: saline with Tween-80) was 119 % of control and the T/C (endpoint: mean survival time, dose: 200.0 mg/kg/injection, schedule: Q04DX003 (ip), vehicle: saline with Tween-80) was 119 % of control.

Consider `CCC(O)(c1ccccc1)C(O)(CC)c1ccccc1` (stereo not given), for which the T/C by setting is: (endpoint: mean survival time, dose: 50.0 mg/kg/injection, schedule: Q04DX002 (ip), vehicle: saline with Tween-80) 96 % of control; (endpoint: mean survival time, dose: 100.0 mg/kg/injection, schedule: Q04DX002 (ip), vehicle: saline with Tween-80) 86 % of control.

On to `O=P(O)(O)c1ccc(I)cc1`, for which the T/C is, setting by setting: (endpoint: mean survival time, dose: 50.0 mg/kg/injection, schedule: Q04DX003 (ip), vehicle: saline) 94 % of control; (endpoint: mean survival time, dose: 100.0 mg/kg/injection, schedule: Q04DX003 (ip), vehicle: saline) 94 % of control; (endpoint: mean survival time, dose: 200.0 mg/kg/injection, schedule: Q04DX003 (ip), vehicle: saline) 98 % of control.

Regarding `O=P(O)(c1ccccc1CBr)c1ccccc1CBr`, the T/C (endpoint: mean survival time, dose: 75.0 mg/kg/injection, schedule: Q01DX001 (ip), vehicle: saline) is 90 % of control.
